{"source": "paper PMC12598805", "about": "“Crystal Structure–Activity Relationship of Some MeO Phenylacrylonitriles: Dual Antimicrobial–Cytotoxic Effects and in Silico Perspectives” (ChemistryOpen, 2025)", "key": {"[1]": {"test_system": "Klebsiella pneumoniae (ATCC-70063)", "assay": "Agar diffusion, zone of inhibition", "format": "cell-based", "settings": "Klebsiella pneumoniae, ATCC70063; K.pneumoniae; compounds at 50 mg mL^−1", "source_text": "The antibacterial and antifungal activities were reported utilizing the method described by the Clinical & Laboratory Standards Institute.^[ [31], [32] ^] Agar diffusion method was used to determine the antimicrobial activity of the synthesized substances. The media used were mueller hinton agar (MHA) for bacteria and sabouraud‐dextrose agar (SDA) for fungi (Merck), as recommended by the manufacturer.\nThe synthesized compounds were initially investigated for their antimicrobial activity to elucidate the potential therapeutic utility against various pathogenic microbes using the agar plate diffusion method. The compounds were tested at a concentration of 50 mg mL^−1, and the antibiotics (ampicillin, kanamycin, and amphotericin B) were used at 5 mg mL^−1. […] K.pneumoniae and B.cereus were resistant to ampicillin, while they were susceptible to kanamycin with inhibition values of 30 and 26 mm, respectively. No antimicrobial activity of the compounds was observed against E.faecalis, S.typhimurium, K.pneumoniae, and for the fungus compared to Amphotericin B (20 mm). […]\nKlebsiella pneumoniae (ATCC-70063)\nATCC: American Type Culture Collection; NRRL: Northern Regional Research Laboratory The compounds 2(a-c) obtained could only be completely solubilised with dimethyl sulphoxide (DMSO) and the highest possible stock solutions of 50 mg.mL-1 were prepared. To these wells 50 μl of the previously prepared substances were transferred using sterile micropipette tips. For comparison, Ampicillin and kanamycin antibiotics for bacteria and Amphotericin B antibiotics for fungus were used as positive controls and DMSO was used as negative control. The prepared petri plates were kept at +4°C for about 1 hour and then the bacterial cultures were incubated at 37°C for 18-24 hours and mould cultures at 27-30°C for 48-72 hours. The zones formed were measured millimetrically with callipers. The experiments were performed with three repetitions. […]"}, "[2]": {"test_system": "Escherichia coli (ATCC 25922)", "assay": "MBC by sub-culture from wells without growth", "format": "cell-based", "settings": "ATCC25922, E.coli", "description": "Escherichia coli (ATCC 25922) […]\nATCC: American Type Culture Collection; NRRL: Northern Regional Research Laboratory The compounds 2(a-c) obtained could only be completely solubilised with dimethyl sulphoxide (DMSO) and the highest possible stock solutions of 50 mg.mL-1 were prepared. […]\n3.1. Determination of Minimum Inhibition Concentration (MIC)\nThe minimum inhibition concentration (MIC) values of the compounds 2(a-c) against the test bacteria used in the study were determined according to the broth microdilution method.[1-2] MHB or SDB was used as test medium and bacterial and yeast suspensions were prepared at 0.5 Mc Farland concentration for each test bacteria. Double layer serial dilutions were prepared in \"U\" type 96-well microtiter plates. Medium+bacteria suspensions containing only medium in the first row, medium+bacteria in the second row and the final concentrations of the synthesised substances in the other rows between 25 mg.mL-1 and […] were added to the wells with a final volume of 200\nμL. Ampicillin, Kanamycin and Amphotericin B standard antibiotics were used as positive controls.\nBacteria were incubated at 37±0.1 °C and C. albicans at 30±0.1 °C for 24-48 hours and the lowest concentration without growth was determined as MIC. Tests were performed in two parallel runs and mean values were given as a result. […]"}}}
{"smiles": "COc1ccc(C=C(C#N)c2ccccc2)cc1", "note": "[2a, 3‐(4‐methoxyphenyl)‐2‐phenylacrylonitrile]", "values": [{"measurement": "zone of inhibition at 50 mg/mL", "setting": "[1]", "result": "< 6", "unit": "mm"}, {"measurement": "MBC", "setting": "[2]", "result": 5000, "unit": "µg/mL"}]}
{"smiles": "COc1ccc(/C=C(\\C#N)c2ccc(F)cc2)cc1", "note": "[2b]", "values": [{"measurement": "zone of inhibition at 50 mg/mL", "setting": "[1]", "result": "< 6", "unit": "mm"}]}
{"smiles": "COc1ccc(/C=C(\\C#N)c2cc(C(F)(F)F)cc(C(F)(F)F)c2)cc1", "note": "[2c]", "values": [{"measurement": "zone of inhibition at 50 mg/mL", "setting": "[1]", "result": "< 6", "unit": "mm"}]}
